Values after ≈ are worked out from the molar mass of the structure shown.
How the values were obtained:
[1] = system: Gram-negative control strains; assay: Checkerboard, summary over Gram-negative strains; type: cell-based
Description: Briefly, antimicrobial stock solutions for robenidine and PMBN were prepared at a concentration of 12.8 mg/ml in DMSO. […] A 1 μl aliquot of the first compound from each combination was dispensed along the abscissa (from row A to G) of the 96-well microplate, while the second compound was dispensed along the ordinate (from column 12 to column 3) using an electronic multichannel pipette followed by 89 μl of LB broth. Each well of the plate was inoculated with an aliquot of 10 μl bacterial suspension at a concentration of 1-5 × 10^6 colony forming units (CFU) per ml. Subsequently, the plate was incubated at 37°C for 24 h. The fractional inhibitory concentration index (FICI) described the results of the combinations, and was calculated utilizing the following formula:
DRI = MIC of drug alone/MIC of drug in combination

[2] = system: tested pathogens (canine otitis externa isolates); assay: MIC, summary over canine otitis externa pathogens; type: cell-based
Description: Luria Bertani (LB) broth (Oxoid, Australia) was applied for MIC testing in lieu of cation-adjusted Mueller-Hinton broth as robenidine has been previously shown to chelate calcium ions. Furthermore, a twofold serial dilution of robenidine was performed in 100% DMSO, with 1 μl dispensed to each well due to the hydrophobicity of the compound ([Abraham et al., 2016]). The MIC for ampicillin or gentamicin against each isolate was determined for each test to serve as an internal quality control. The MICs of isolates were determined by visual reading and using an EnSpire Multimode Plate Reader 2300 atA600nm. […] Each well of the plate was inoculated with an aliquot of 10 μl bacterial suspension at a concentration of 1-5 × 10^6 colony forming units (CFU) per ml. Subsequently, the plate was incubated at 37°C for 24 h. The fractional inhibitory concentration index (FICI) described the results of the combinations, and was calculated utilizing the following formula: […]

S. pneumoniae strains = system: S. pneumoniae strains; parameters: method as in Abraham et al., 2016; Ogunniyi et al., 2017; conditions: ref Abraham et al., 2016, Ogunniyi et al., 2017; cited from earlier work
S. aureus ATCC 29213 = assay: MIC broth microdilution, quality control strain; type: cell-based; conditions: Staphylococcus aureus, ATCC29213; S. aureus ATCC 29213, quality control strain
Description: Luria Bertani (LB) broth (Oxoid, Australia) was applied for MIC testing in lieu of cation-adjusted Mueller–Hinton broth as robenidine has been previously shown to chelate calcium ions. Furthermore, a twofold serial dilution of robenidine was performed in 100% DMSO, with 1 μl dispensed to each well due to the hydrophobicity of the compound ([Abraham et al., 2016]). The MIC for ampicillin or gentamicin against each isolate was determined for each test to serve as an internal quality control. The MICs of isolates were determined by visual reading and using an EnSpire Multimode Plate Reader 2300 atA600nm.

[3] = system: all the cell lines tested (HaCaT, HEK 293, MDCK); assay: cells
Description: Cells were maintained in Dulbecco’s modified Eagle’s medium (DMEM) with 10% fetal bovine serum (FBS) and 1% PenStrep (100 U/mL Penicillin and 100 μg/mL Streptomycin) at 37°C with 5% CO2. Cells were serially passaged at ∼80% confluence ∼ every 4 days. Assays were performed in duplicate in 96 well plates seeded with ∼25,000 cells per well. […] Briefly, the antimicrobials were prepared by performing a twofold serial dilution at 100× of tested concentration in DMSO. Subsequently, a 1 μl aliquot of each concentration was transferred to a sterile 96-well plate containing fresh DMEM with either 10% FBS. After mixing four times, the media aliquots with different concentrations of antimicrobial were transferred to each well of the 96-well plate seeded with cells, using wells containing 1–2% DMSO only as control. To determine the effect of FBS on the cytotoxicity of each compound, DMEM with 40% FBS containing different concentrations of antimicrobial was prepared as described above. After 24 h of exposure, WST-1 reagent (Cell Proliferation Assay reagent, Roche) at a concentration of 10% was added to each well. Absorbance at A450 nm on a Multiskan Ascent 354 Spectrophotometer (Labsystems) was measured after 1 h of incubation. The IC50 value was determined for each compound against each cell line via non-linear regression (three parameters) using GraphPad Prism v6 software.

| Compound | lowest robenidine concentration inhibiting growth ([1]; in combination with PMBN, Gram-negative ATCC strains of ESKAPE pathogens) [µg/mL] | DRIs of robenidine ([1]; in the presence of EDTA, Gram-negative control strains (Table 1)) | DRIs of robenidine ([1]; in the presence of PMBN, Gram-negative control strains (Table 2)) | MIC ([1]; in the presence of PMBN, Gram-negative pathogens, read-out: MIC of robenidine) [µg/mL] | DRIs of robenidine ([1]; in the presence of both EDTA and PMBN, all tested isolates (abstract)) | fold increase in susceptibility ([1]; robenidine in combination with PMBN, Gram-negative ATCC strains of ESKAPE pathogens) | MIC values ([2]; Gram-positive bacteria: S. pseudintermedius and beta-haemolytic streptococci) [µg/mL] | MIC90 of robenidine ([2]; in the presence of EDTA, tested pathogens) [µg/mL] | effective concentrations (MIC range) (S. pneumoniae strains) [µg/mL] | MIC (S. aureus ATCC 29213) [µg/mL] | IC50 [3] [mM] |
| --- | --- | --- | --- | --- | --- | --- | --- | --- | --- | --- | --- |
| N=C(N/N=C/c1ccc(Cl)cc1)N/N=C/c1ccc(Cl)cc1 [ROB, robenidine] | ≥ 0.125 | 2- to 256 fold | 8- to 256 fold | 0.5 to 8 | 2- to 2048 fold | 4- to 256 fold | 1 to 16 | 0.5 to 4 | 2 to 8 | 2 (≈ 5.98 µM) | – |
| O=C(O)CN(CCN(CC(=O)O)CC(=O)O)CC(=O)O [EDTA, ethylenediaminetetraacetic acid] | – | – | – | – | – | – | – | – | – | – | 3.4 |
